Consider 16 compounds from patent publication US9643968B2, “Fused acridine derivative and pharmaceutical composition, preparation method and use thereof” (Peking University, priority 2014, dated 2017).

The subject of series [1] is SK-OV-3 (human ovarian adenocarcinoma). The series can be described thus: MTT in vitro cytotoxicity, SK-OV-3. The format is cell-based. The following applies: 72 hr incubation. As to the method:
(§1) Materials and methods: MTT (3-[4,5-dimethylthiazol-2-yl]-diphenyl tetrazolium bromide) method was employed to determine the antiproliferative activity of all the compounds of the Examples and Contrasting Examples in vitro against selected cell lines, including HCT116 (human colon cancer cell), PC-3 (human prostate cancer), HepG2 (human hepatocellular carcinoma), SK-OV-3 (human ovarian adenocarcinoma), MCF-7 (human breast cancer), U87MG (human glioblastoma cell) cell lines.
(§2) Procedure: Human tumor cells of HCT116, PC-3, HepG2, SK-OV-3, MCF-7, and U87MG were in vitro cultured, and collected until the cells grow to the logarithmic phase. The cells were centrifuged for 5 minutes at 1000 rpm, and supernatant was discarded. Subsequently appropriate culture medium was added to suspend the precipitation, and the concentration of cells was adjusted to 3.5˜5.5×10^4/mL. the suspensions of cells were seeded in 96-well microplate at 100 μL per well, and incubated in incubator (37° C., 5% CO2) for 24 hr. The compound to test was added. For the control group, equivalent concentration of DMSO (final concentration 0.5%) was added. For each group, three copy wells were set. After incubated for 72 hr, 20 μL 5 mg/mL of MTT was added into each well, and placed at 37° C. for 3 hr. 150 μL of DMSO was added into each wells, and vibrated the shaker at 37° C. for 5 mins, then measured the absorbance (OD) value at 492 nm/620 nm. The IC50 values were calculated using Prism 5.0 software.

The subject of series [2] is HepG2 (human hepatocellular carcinoma). Kind of series: MTT in vitro cytotoxicity, HepG2. It counts as cell-based. The following applies: 72 hr incubation. As to the method:
as §1, §2

The test system of series [3] is PC-3 (human prostate cancer). The series can be described thus: MTT in vitro cytotoxicity, PC-3. The format is cell-based. To be noted: 72 hr incubation, read-out: IC50 PC3. On the procedure:
as §1, §2

The subject of series [4] is HCT116 (human colon cancer cell). Kind of series: MTT in vitro cytotoxicity, HCT116. It counts as cell-based. To be noted: HCT-116, 72 hr incubation. On the procedure:
as §1, §2

For series [5], the system named is U87MG (human glioblastoma cell). Kind of series: MTT in vitro cytotoxicity, U87MG. The format is cell-based. The following applies: U-87 MG, 72 hr incubation. As to the method:
as §1, §2

Another series deals with tumor cells (U87MG). Kind of series: Assay for inhibiting cancer cell clone formation (soft agar). To be noted: concentration range from 0.020 to 0.090 μM, 10-14 days. The format is cell-based, human. On the procedure: Materials and methods: The tested tumor cells (U87MG) in the logarithmic phase were digested with 0.25% trypsin then percussed gently to the single cell state, and counted the live cells. The cells density was adjusted to 1×10^6[…] with DMEM containing 20% fetal bovine serum, and then diluted gradiently according to the experiment requirement.
Two concentrations (1.2% and 0.7%) of low melting point agarose fluid were prepared with distilled water respectively. A mixture of 1.2% agarose fluid and 2×DMEM medium (contains 2× antibiotics and 20% calf serum) was prepared in 1:1 ratio, then transferred (3 mL) into 6 cm diameter flat dishes, cooled to solidification to furnish the bottom agar which was stored in a CO2 incubator. The cell suspension (0.2 mL) was added to a mixture of 0.7% agarose and 2×DMEM medium which was prepared in 1:1 ratio in sterile tubes, and thoroughly mixed before injection to the precoated dishes to form the double layer agar. After the upper agar being solidified, the dishes were incubated in 37° C. and 5% CO2 for 10-14 days, each experiment was performed in 3-6 times.
The number of clones was counted under an inverted microscope. The clone formation rate was calculated.

In another series the test system is U87MG cells. Kind of series: In vivo antitumor activity test, U87MG subcutaneous xenograft. The arrangement: species or system BALB/c nude mice. The following applies: oral qd × 5/w; for tumor inhibition rate (IR): 10 doses, by tumor weight. On the procedure:
(§3) Animals: Female 6-8 weeks BALB/c nude mice weighed 16 to 18 g. They were raised at SPF-level animal room with a 12 h light-dark cycle; drinking and eating were provided ad libitum.
(§4) Under aseptic conditions, U87MG cells in the logarithmic phase were digested and its density was adjusted. U87MG cells were inoculated hypodermically in BALB/c nude mice, 0.1 mL for each mouse. The diameter of the transplantation was measured with a Vernier caliper. After their tumor size was about 100-200 mm^3, 36 mice were randomly divided into 5 groups according to the tumor size. The mice of each group was orally administered the dose respectively according to the above-mentioned schedule, and the mice of the vehicle group were given same dose of saline. The first day of dosing named for D1. The long diameter and short diameter of the tumor size of each mouse were measured twice a week, and the body weights were recorded at the same time.
Indicators were observed, measured, and recorded from the first day of dosing. The tumor size was measured using a Vernier caliper to calculate tumor volume change and the tumor growth. After the tumor-burdened mice were executed and dissected, the tumor tissues were separated, and weighed.
(§5) Indicators for antitumor efficacy evaluation including: relative tumor inhibition rate, body weight, general state of the mice and related toxicity index. Curves of tumor growth and body weight change of every group were plotted at the end of the experiment.
The calculation formula for tumor volume (TV) is: TV=½×a×b^2, where a and b means long diameter and short diameter of the tumor size respectively.
Tumor inhibition rate IR (%)=(1−TTW/CTW)×100%, TTW: TW of the treatment group; CTW: TW of the control group.
Statistical analysis: Data were analyzed using SPSS 11.0 with Student t-test for comparisons and ANOVA. P-values <0.05 were considered significant.

A short description of series [6]: Body weight in U87MG tumor-bearing mice. The format is in vivo, BALB/c nude mice. The following applies: oral qd × 5/w. On the procedure:
as §3, §4, §5

Molecules are shown by their SMILES. Bounds are passed on as bounds.

`CN(C)CCN1C(=O)c2c3ccccc3nc3cccc1c23` [Compound 1a, 2-(2-(dimethylamino)ethyl)pyrrolo[2,3,4-kl]acridin-1-(2H)-one]: the IC50 (usually the concentration that gives 50% inhibition) in series [1] was 14.8 µM; in series [2], 6.35 µM; in series [3] it was 14.5 µM; in series [4] it was 7.41 µM; in series [5], 0.582 µM.
With `O=C1c2c3ccccc3nc3cccc(c23)N1CCCN1CCOCC1` [Compound 1b, 2-(3-morpholinopropyl)pyrrolo[2,3,4-kl]acridin-1-(2H)-one], the IC50 is 8.43 µM in series [1]; 2.78 µM in series [2]; 3.01 µM in series [3]; 1.87 µM in series [4]; 1.78 µM in series [5].
In the same order, the values of `O=C1c2c3ccccc3nc3cccc(c23)N1CCN1CCCCC1` [Compound 1f, 2-(2-(piperidin-1-yl)ethyl)pyrrolo[2,3,4-kl]acridin-1-(2H)-one] are 3.65 µM, 2.27 µM, 3.19 µM, 1.13 µM and 3.93 µM.
`O=C1c2c3ccccc3nc3cccc(c23)N1CCN1CCCC1` [Compound 1g, 2-(2-(pyrrolidin-1-yl)ethyl)pyrrolo[2,3,4-kl]acridin-1-(2H)-one]: the IC50 in series [1] was determined as 6.52 µM; in series [2], 2.16 µM; in series [3], 3.99 µM; in series [4] it was 0.946 µM.
Take `O=C1c2c3ccccc3nc3cccc(c23)N1CCCN1CCCC1` [Compound 1h, 2-(3-(pyrrolidin-1-yl)propyl)pyrrolo[2,3,4-kl]acridin-1-(2H)-one]: the IC50 in series [1] was determined as 11.9 µM; in series [2], 8.15 µM; in series [3], 11.9 µM; in series [4], 1.8 µM; in series [5], 10.2 µM.
Regarding `CN(C)CCN1C(=O)c2c3cc(Cl)ccc3nc3cccc1c23` [Compound 2b, 9-chloro-2-(2-(dimethylamino)ethyl)pyrrolo[2,3,4-kl]acridin-1-(2H)-one], the IC50 in series [2] worked out at 1.07 µM; in series [3] it was 1.22 µM; in series [4] it was 0.859 µM; in series [5], 1.45 µM. For the same compound, the “inhibition of glioma cell clone formation” value in the series on tumor cells (U87MG) was “significantly inhibited”.
Turning to `CN(C)CCN1C(=O)c2c3cccc(F)c3nc3cccc1c23` [Compound 2d, 2-(2-(dimethylamino)ethyl)-7-fluoropyrrolo[2,3,4-kl]acridin-1-(2H)-one], the IC50 in series [2] came out at 1.41 µM; in series [3], 1.85 µM; in series [4], 0.951 µM; in series [5] it was 1.7 µM. In addition, in the series on tumor cells (U87MG), the “inhibition of glioma cell clone formation” value is reported as “significantly inhibited”.
As for `CN(C)CCCN1C(=O)c2c3cc(Cl)ccc3nc3cccc1c23.O=C(O)/C=C/C(=O)O` [Compound 3b′, 9-chloro-2-(3-(dimethylamino)propyl)pyrrolo[2,3,4-kl]acridin-1-(2H)-one fumarate], the “inhibition of glioma cell clone formation” value in the series on tumor cells (U87MG) was “significantly inhibited”.
Regarding `Cc1ccc2nc3c(C)ccc4c3c(c2c1)C(=O)N4CCN(C)C` [Compound 5a, 2-(2-(dimethylamino)ethyl)-5,9-dimethylpyrrolo[2,3,4-kl]-acridin-1-(2H)-one], the IC50 in series [2] was found to be 1.94 µM; in series [3] it was 2.9 µM; in series [4] it was 1.06 µM; in series [5] it was 1.48 µM. The “inhibition of glioma cell clone formation” value in the series on tumor cells (U87MG) is given as “significantly inhibited”.
Consider `Cc1ccc2c3c(c4cc(Cl)ccc4nc13)C(=O)N2CCN(C)C` [Compound 5b, 9-chloro-2-(2-(dimethylamino)ethyl)-5-methylpyrrolo[2,3,4-kl]-acridin-1-(2H)-one], for which the IC50 worked out at 1.17 µM in series [2], 2.24 µM in series [3], 0.93 µM in series [4] and 1.27 µM in series [5]. Besides, the “inhibition of glioma cell clone formation” value in the series on tumor cells (U87MG) is “significantly inhibited”.
On to `COc1ccc2nc3c(C)ccc4c3c(c2c1)C(=O)N4CCN(C)C.O=C(O)/C=C/C(=O)O` [Compound 5c′, 2-(2-(dimethylamino)ethyl)-9-methoxy-5-methylpyrrolo[2,3,4-kl]-acridin-1-(2H)-one fumarate], for which the “tumor size compared with the vehicle” value with U87MG cells (high dose group (80 mg/kg)) and with U87MG cells (median dose group (40 mg/kg)) was “significantly smaller than the vehicle” in each case. Besides, the “tumor inhibition rate (IR)” value in the series with U87MG cells (high dose group (80 mg/kg)) is 91%; with U87MG cells (median dose group (40 mg/kg)), 69%. Besides, the “animal weight compared with the vehicle” value in series [6] (high dose group (80 mg/kg)) and in series [6] (median dose group (40 mg/kg)) was “grew slowly compared with the vehicle” in each case. Further, the “animal weight loss compared with the positive control (TMZ) group” value in series [6] (high dose group (80 mg/kg)) is listed as “significantly lower than the positive control”. Further, the “inhibition of glioma cell clone formation” value in the series on tumor cells (U87MG) is “significantly inhibited”.
Consider `Cc1ccc2c3c(c4cccc(F)c4nc13)C(=O)N2CCN(C)C` [Compound 5d, 2-(2-(dimethylamino)ethyl)-7-fluoro-5-methylpyrrolo[2,3,4-kl]-acridin-1-(2H)-one], for which the IC50 came to 1.72 µM in series [2], 2.51 µM in series [3], 1 µM in series [4] and 1.42 µM in series [5]. The “inhibition of glioma cell clone formation” value in the series with tumor cells (U87MG) is recorded as “significantly inhibited”.
Turning to `Cc1ccc2c3c(c4ccccc4nc13)C(=O)N2CCN(C)C` [Compound 5e, 2-(2-(dimethylamino)ethyl)-5-methylpyrrolo[2,3,4-kl]-acridin-1-(2H)-one], the IC50 in series [2] worked out at 1.28 µM; in series [3], 1.66 µM; in series [4], 0.767 µM; in series [5], 0.959 µM. Besides, in the series on tumor cells (U87MG), the “inhibition of glioma cell clone formation” value is reported as “significantly inhibited”.
Take `CCCCN1C(=O)c2c3ccccc3nc3cccc1c23` [Compound 6a, 2-butylpyrrolo[2,3,4-kl]acridin-1-(2H)-one, reference compound]: the IC50 in series [1], in series [2], in series [3], in series [4] and in series [5] was over 50 µM in each case.
`O=C1c2c3ccccc3nc3cccc(c23)N1c1ccccc1` [Compound 6b, 2-phenylpyrrolo[2,3,4-kl]acridin-1-(2H)-one, reference compound]: the IC50 in series [1], in series [2], in series [3], in series [4] and in series [5] was over 50 µM throughout.
In the case of `Cn1nnc2c(C(N)=O)ncn2c1=O` [TMZ, Temozolomide, reference compound], in series [6] (50 mg/kg), the “animal weight compared with the vehicle” value is reported as “significant lower compared with the vehicle”.
